# Experimental data taken from article PMC3401594 (International Journal of Pharmaceutics, 2009).
# Several values for one entry are separate records, joined by “and”; a condition that tells them apart may be missing. Equal entries are not always repeated. Where two headings read alike, the source gives them in different places. Marks after values point to notes of the source that are not given here.
# Columns and labels:
# [1] = tail-flick, hotplate and paraphenylquinone assays; ref DEC, NIDA; cited from earlier work
# μ receptor = settings: read-out: Ki at μ receptor, as determined by DEC, NIDA, ref DEC; cited from earlier work
# [2] = test system: P-gp (mdr1a/b) influence on antinociception; parameters: species or system mice; settings: mouse, in vivo; for Influence of P-gp ablation on antinociceptive activity: sc
# [3] = mouse, in vivo
# recombinant human P-gp [4] = biological target: T1, recombinant human P-gp (Homo sapiens, UniProt P08183)
# [5] = in vivo; cited from earlier work
# [6] = 20 mg/kg, for 45 min in wild type mice; ref Thompson et al., 2000; cited from earlier work
# recombinant human P-gp [7] = biological target: T1, recombinant human P-gp; settings: cited from earlier work
# [8] = ref Casy and Parfitt, 1986; cited from earlier work
# T1 sequence (P08183 whole entry): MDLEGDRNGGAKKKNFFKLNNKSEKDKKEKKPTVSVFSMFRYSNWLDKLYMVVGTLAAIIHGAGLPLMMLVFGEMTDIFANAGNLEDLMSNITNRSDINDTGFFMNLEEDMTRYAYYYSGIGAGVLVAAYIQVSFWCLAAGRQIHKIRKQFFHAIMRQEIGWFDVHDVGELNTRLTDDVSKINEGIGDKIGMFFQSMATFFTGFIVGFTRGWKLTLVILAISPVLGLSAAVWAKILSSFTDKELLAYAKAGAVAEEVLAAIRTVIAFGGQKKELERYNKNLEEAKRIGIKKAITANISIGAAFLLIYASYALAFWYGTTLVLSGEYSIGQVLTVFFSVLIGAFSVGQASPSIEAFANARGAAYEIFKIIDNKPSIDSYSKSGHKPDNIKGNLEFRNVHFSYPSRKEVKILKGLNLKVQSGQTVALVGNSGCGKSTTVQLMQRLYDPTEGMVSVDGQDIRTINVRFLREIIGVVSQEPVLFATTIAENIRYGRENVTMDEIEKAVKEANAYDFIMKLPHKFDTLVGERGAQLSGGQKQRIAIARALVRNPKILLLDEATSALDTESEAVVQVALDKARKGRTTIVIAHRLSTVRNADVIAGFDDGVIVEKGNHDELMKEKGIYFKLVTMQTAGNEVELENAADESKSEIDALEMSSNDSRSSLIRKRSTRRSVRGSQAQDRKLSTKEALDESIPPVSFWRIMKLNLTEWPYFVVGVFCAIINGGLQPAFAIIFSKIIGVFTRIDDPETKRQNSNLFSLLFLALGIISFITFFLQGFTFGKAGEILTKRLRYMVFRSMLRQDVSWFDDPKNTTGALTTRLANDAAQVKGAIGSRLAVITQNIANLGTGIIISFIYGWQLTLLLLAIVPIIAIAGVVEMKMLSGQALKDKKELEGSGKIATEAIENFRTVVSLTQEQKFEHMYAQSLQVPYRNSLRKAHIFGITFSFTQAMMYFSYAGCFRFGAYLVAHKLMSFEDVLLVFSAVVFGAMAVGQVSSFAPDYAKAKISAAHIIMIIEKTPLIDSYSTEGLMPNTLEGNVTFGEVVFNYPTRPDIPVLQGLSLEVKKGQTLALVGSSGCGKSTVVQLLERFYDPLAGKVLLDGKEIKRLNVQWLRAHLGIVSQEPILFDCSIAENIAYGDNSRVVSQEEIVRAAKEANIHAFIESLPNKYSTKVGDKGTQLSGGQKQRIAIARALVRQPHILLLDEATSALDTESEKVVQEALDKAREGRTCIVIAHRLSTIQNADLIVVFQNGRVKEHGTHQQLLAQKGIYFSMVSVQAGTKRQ
structure (smiles),measurement,setting,value
CN1CC[C@]23c4c5ccc(O)c4O[C@H]2CC=C[C@H]3[C@H]1C5 [6-Desoxymorphine],Potency relative to morphine (times as potent),[1],~ 10 times
same,Ki,μ receptor,2.9 nM
same,AUEC ratio mdr1a/b (−/−)/mdr1a/b (+/+),[2],1.14 ± 1.08 and 1.17 ± 0.17
same,Maximum %MPE reached,[2],100%
same,Influence of P-gp ablation on antinociceptive activity,[2],no significant influence
same,Signs of toxicity,[3],no apparent toxicity
same,P-gp affinity status from P-gp ATPase assay,recombinant human P-gp [4],not to be P-gp substrates
same,Fold stimulation of basal P-gp-ATPase activity,recombinant human P-gp [4]; human,1.01 ± 0.11 fold
C=CCN1CC[C@]23c4c5ccc(O)c4O[C@H]2C(=O)CC[C@@]3(O)[C@H]1C5 [Naloxone],Fold stimulation of basal P-gp-ATPase activity,recombinant human P-gp [4]; human,1.25 ± 0.11 fold
same,Stimulation of P-gp ATPase activity (significance),recombinant human P-gp [4]; human,did not significantly (p > 0.05) stimulate
CN1CC[C@]23c4c5ccc(O)c4O[C@H]2C(=O)CC[C@@]3(O)[C@H]1C5 [Oxymorphone],Potency relative to morphine (times as potent),[5],approximately 10 times
same,P-gp affinity status from P-gp ATPase assay,recombinant human P-gp [4],not to be P-gp substrates
same,Fold stimulation of basal P-gp-ATPase activity,recombinant human P-gp [4]; human,1.12 ± 0.12 fold
same,Stimulation of P-gp ATPase activity (significance),recombinant human P-gp [4]; human,did not significantly (p > 0.05) stimulate
CN1CC[C@]23c4c5ccc(O)c4O[C@H]2[C@@H](O)C=C[C@H]3[C@H]1C5 [Morphine],%MPE reached,[6],~ 95 %MPE
CCOC(=O)C1(c2ccccc2)CCN(C)CC1 [Meperidine],AUEC ratio mdr1a/b (−/−)/mdr1a/b (+/+),[2],1.14 ± 0.2
same,mdr1a/b (+/+) (AUEC),[2],6752.14 ± 917.94 %MPE × min
same,mdr1a/b (−/−) (AUEC),[2],7678.40 ± 851.59 %MPE × min
same,Influence of P-gp ablation on antinociceptive activity,[2],no significant influence
same,Fold stimulation of basal P-gp-ATPase activity,recombinant human P-gp [7],1.51 ± 0.29 fold
same,Intravenous to intraventricular ED10 ratio,[8],8.5
COc1ccc2c3c1O[C@H]1[C@@H](O)C=C[C@H]4[C@@H](C2)N(C)CC[C@@]341 [Codeine],Fold stimulation of basal P-gp-ATPase activity,recombinant human P-gp [4]; human,1.36 ± 0.07 ^b fold
same,Rate of ATP consumption versus non-treated control (significance),recombinant human P-gp [4]; human,significantly different (p < 0.05)
COc1ccc2c3c1O[C@H]1CC=C[C@H]4[C@@H](C2)N(C)CC[C@]314 [6-Desoxycodeine],P-gp affinity status from P-gp ATPase assay,recombinant human P-gp [4],not to be P-gp substrates
same,Fold stimulation of basal P-gp-ATPase activity,recombinant human P-gp [4]; human,1.31 ± 0.15 fold
